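Method: 48-hour compound exposure of cells in 96-well plates, five concentrations, linear interpolation of endpoints. Abbreviation: GI50, concentration required for 50% inhibition of growth.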 Calls of active or inactive are those of the source. Cut-off read from the data, not from the text of the source: active = GI50 up to about 1.1 µM and inactive = higher.
How the values were obtained:
Assay in all cases: DTP human tumour cell line panel, 48 h
[1] = tested on: TK-10
[2] = tested on: CAKI-1
[3] = tested on: SF-268
[4] = tested on: HOP-62
[5] = tested on: PC-3
[6] = tested on: KM12
[7] = tested on: SNB-19
[8] = tested on: EKVX
[9] = tested on: MOLT-4
[10] = tested on: HCT-116
[11] = tested on: MDA-MB-231
[12] = tested on: ACHN
[13] = tested on: UACC-257
[14] = tested on: UACC-62
[15] = tested on: A549
[16] = tested on: SK-MEL-28
[17] = tested on: A498
[18] = tested on: K562
[19] = tested on: SF-295
[20] = tested on: NCI-H23

Measured: GI50

Cc1cc(S(=O)(=O)Nc2n[nH]c(-c3ccc(Cl)cn3)n2)c(S)cc1Cl
inactive: [1] > 100 µM | [2] 44 µM | [3] 54.7 µM | [4] 76.6 µM | [5] > 100 µM | [6] 36.3 µM | [7] 30.1 µM | [8] > 100 µM | [9] 40.6 µM | [10] 38.6 µM | [11] > 100 µM | [12] 32.9 µM | [13] > 100 µM | [14] 48.6 µM | [15] 62.7 µM | [16] > 100 µM | [17] 87.3 µM

O=C(NNS(=O)(=O)c1ccccc1)c1csc(NC(=S)NC2CCCCC2)n1
inactive: [1] 35.6 µM | [2] 28.4 µM | [3] 22 µM | [4] 58.3 µM | [18] 56.6 µM | [19] 32.1 µM | [5] 34.2 µM | [6] 36.3 µM | [8] 35.6 µM | [9] 36.5 µM | [10] 18.1 µM | [11] 22.8 µM | [12] 33.5 µM | [20] 48 µM | [13] 22.8 µM | [14] 23.7 µM | [15] 35.2 µM | [17] 80.5 µM

CCCC(CC)c1c(O)c(O)c(C(CC)CCC)c(C(CC)CCC)c1C(CC)CCC (stereo not given)
inactive: [1] > 10 µM | [2] > 10 µM | [3] > 10 µM | [4] > 10 µM | [18] > 10 µM | [19] > 10 µM | [5] > 10 µM | [6] > 10 µM | [7] > 10 µM | [8] > 10 µM | [10] > 10 µM | [11] > 10 µM | [12] > 10 µM | [20] > 10 µM | [13] > 10 µM | [14] > 10 µM | [15] > 10 µM | [16] > 10 µM | [17] > 10 µM

Cc1cc(C)c2c(=N)c3ccccc3n(CCCCCCO)c2n1
inactive: [1] 3.15 µM | [2] 2.48 µM | [3] 3.62 µM | [4] 4.53 µM | [19] 3.36 µM | [5] 2.21 µM | [6] 3.94 µM | [7] 5.6 µM | [8] 2.82 µM | [9] 3.78 µM | [10] 3.11 µM | [11] 3.68 µM | [12] 1.36 µM | [20] 2.15 µM | [13] 4.75 µM | [14] 2.64 µM | [15] 3.3 µM | [16] 5.71 µM | [17] 10.5 µM

Cc1cc2[nH]c3c(C#N)c(-c4ccccc4)c(/C=N/c4cccc(C(F)(F)F)c4)c(=O)n3c2cc1C
inactive: [1] > 100 µM | [2] 89.9 µM | [3] 64.7 µM | [4] 22.6 µM | [19] 64.3 µM | [5] > 100 µM | [6] 38.4 µM | [7] > 100 µM | [8] > 100 µM | [10] 40.8 µM | [11] > 100 µM | [12] 83.9 µM | [20] > 100 µM | [13] > 100 µM | [15] > 100 µM | [16] > 100 µM | [17] > 100 µM

CCC(=O)O[C@H]1CC[C@H]2[C@@H]3CCC4=C/C(=N/NC(=O)c5cccc6c(=O)c7ccccc7[nH]c56)CC[C@]4(C)[C@H]3CC[C@]12C
inactive: [1] > 25 µM | [3] > 25 µM | [4] > 25 µM | [18] > 25 µM | [19] > 25 µM | [5] > 25 µM | [6] > 25 µM | [7] > 25 µM | [8] > 25 µM | [9] > 25 µM | [11] > 25 µM | [12] > 25 µM | [20] > 25 µM | [13] > 25 µM | [14] > 25 µM | [15] > 25 µM | [16] > 25 µM | [17] > 25 µM

COC(=O)/C(C#N)=C(\Nc1ccccc1)N1CCOCC1
inactive: [1] > 100 µM | [2] > 100 µM | [3] > 100 µM | [4] > 100 µM | [18] > 100 µM | [19] > 100 µM | [5] > 100 µM | [7] > 100 µM | [8] > 100 µM | [9] > 100 µM | [10] > 100 µM | [11] > 100 µM | [12] > 100 µM | [20] > 100 µM | [13] > 100 µM | [15] > 100 µM | [16] > 100 µM | [17] > 100 µM

Cc1cn(CCOCCOC(=O)NC(CCCNC(=N)N)C(=O)O)c(=O)[nH]c1=O (stereo not given)
inactive: [1] > 100 µM | [3] > 100 µM | [4] > 100 µM | [18] > 100 µM | [19] > 100 µM | [5] > 100 µM | [6] > 100 µM | [7] > 100 µM | [8] > 100 µM | [9] > 100 µM | [10] > 100 µM | [11] > 100 µM | [12] > 100 µM | [20] > 100 µM | [13] > 100 µM | [14] > 100 µM | [15] > 100 µM | [16] > 100 µM | [17] > 100 µM

COCN1C(=O)[C@@H]2CCCN2C(=O)c2cc([N+](=O)[O-])ccc21
inactive: [1] > 100 µM | [2] 76.7 µM | [3] 35.9 µM | [4] 41.1 µM | [19] 35.5 µM | [5] 36.3 µM | [6] > 100 µM | [7] 96.6 µM | [8] > 100 µM | [10] 86.9 µM | [11] 61.1 µM | [12] 53.1 µM | [20] 86.7 µM | [13] > 100 µM | [14] 85.7 µM | [15] 88.3 µM | [16] > 100 µM | [17] 43 µM

O=C1c2ccccc2C(=O)N1n1c(Cc2ccc([N+](=O)[O-])cc2)n[nH]c1=O
inactive: [1] > 100 µM | [2] > 100 µM | [3] > 100 µM | [4] > 100 µM | [18] > 100 µM | [19] > 100 µM | [5] > 100 µM | [6] > 100 µM | [7] > 100 µM | [9] > 100 µM | [10] > 100 µM | [11] > 100 µM | [12] > 100 µM | [20] > 100 µM | [13] > 100 µM | [14] 36.3 µM | [15] > 100 µM | [16] > 100 µM | [17] > 100 µM

CCOP(=O)(CN1CCNCCNCC1)OCC
inactive: [1] > 100 µM | [2] > 100 µM | [4] > 100 µM | [18] > 100 µM | [19] > 100 µM | [5] > 100 µM | [6] > 100 µM | [7] > 100 µM | [8] > 100 µM | [9] > 100 µM | [10] > 100 µM | [11] > 100 µM | [12] > 100 µM | [13] > 100 µM | [14] > 100 µM | [15] > 100 µM | [16] > 100 µM | [17] > 100 µM

Source: ChEMBL document CHEMBL1201862, “PubChem BioAssay data set” (2004)
